# Key:
# [1] = system: Diamond Back Moth (Plutella xylostella); experiment: Test Example 1: insecticidal effect on diamond back moth, Chinese cabbage seedling with eggs immersed in liquid chemical; type: in vivo; conditions: eggs on Chinese cabbage seedling immersed about 30 seconds, six days after immersion, 25° C.
# From the text: Insecticidal Effect on Diamond Back Moth (Plutella xylostella)
# Adult diamond back moths were released and allowed to oviposit on a Chinese cabbage seedling. Two days after the release, the seedling having the eggs deposited thereon was immersed for about 30 seconds in a liquid chemical prepared by diluting a preparation containing each compound listed in Table 1 or 2 as an active ingredient to adjust the prescribed concentration. After air-dryness, it was allowed to stand in a room thermostatted at 25° C. Six days after the immersion, the hatched insects were counted. The mortality was calculated according to the following equation and the insecticidal effect was judged according to the criterion shown below. The test was carried out with triplicate groups of 10 insects. [formula]
# [2] = system: Common Cutworm (Spodoptera litura); experiment: Test Example 2: insecticidal effect on common cutworm, cabbage leaf immersion; type: in vivo; conditions: cabbage leaf immersed, second-instar larvae, eight days after inoculation, 25° C.
# From the text: Insecticidal Effect on Common Cutworm (Spodoptera litura)
# A piece of cabbage leaf (cultivar; Shikidori) was immersed for about 30 seconds in a liquid chemical prepared by diluting a preparation containing each compound listed in Table 1 or 2 as an active ingredient to adjust the prescribed concentration. After air-dryness, it was placed in a plastic Petri dish with a diameter of 9 cm and inoculated with second-instar larvae of common cutworm, after which the dish was closed and then allowed to stand in a room thermostatted at 25° C. Eight days after the inoculation, the dead and alive were counted. The mortality was calculated according to the following equation and the insecticidal effect was judged according to the criterion shown in Test Example 1. The test was carried out with triplicate groups of 10 insects. [formula]
Compound,Test Example 1 insecticidal effect (mortality grade) ([1]; 5 ppm),Test Example 1 insecticidal effect (mortality grade) ([1]; 50 ppm),Test Example 2 insecticidal effect (mortality grade) ([2]; 5 ppm),Test Example 2 insecticidal effect (mortality grade) ([2]; 50 ppm),"mortality at 5 ppm ([1]; Plutella xylostella, 144 h, 5 ppm, read-out: Test Example 1 insecticidal effect (mortality grade)) [%]","mortality at 50 ppm ([1]; Plutella xylostella, 144 h, 50 ppm, read-out: Test Example 1 insecticidal effect (mortality grade)) [%]","mortality at 5 ppm ([2]; Spodoptera litura, 192 h, 5 ppm, read-out: Test Example 2 insecticidal effect (mortality grade)) [%]","mortality at 50 ppm ([2]; Spodoptera litura, 192 h, 50 ppm, read-out: Test Example 2 insecticidal effect (mortality grade)) [%]"
CSCC(C)(C)NC(=O)c1c(I)cccc1C(=O)Nc1ccc(C(F)(F)F)cc1Cl [Compound 1-20],A (Mortality 100%),A (Mortality 100%),A (Mortality 100%),A (Mortality 100%),,,,
C[S+]([O-])CC(C)(C)NC(=O)c1c(I)cccc1C(=O)Nc1ccc(C(F)(F)F)cc1Cl (centres unmarked) [Compound 1-21],A (Mortality 100%),A (Mortality 100%),C (Mortality 89-80%),A (Mortality 100%),,,,
CC(C)(CS(C)(=O)=O)NC(=O)c1c(I)cccc1C(=O)Nc1ccc(C(F)(F)F)cc1Cl [Compound 1-22],A (Mortality 100%),A (Mortality 100%),C (Mortality 89-80%),A (Mortality 100%),,,,
CSCC(C)(C)NC(=O)c1c(I)cccc1C(=O)Nc1ccc(-c2ccc(Cl)cc2)cc1Cl [Compound 1-38],A (Mortality 100%),A (Mortality 100%),E (Mortality 49-0%),A (Mortality 100%),,,,
CSCC(C)(C)NC(=O)c1c(I)cccc1C(=O)Nc1ccc(OC(F)F)c(Cl)c1Cl [Compound 1-43],A (Mortality 100%),A (Mortality 100%),A (Mortality 100%),A (Mortality 100%),,,,
C[S+]([O-])CC(C)(C)NC(=O)c1c(I)cccc1C(=O)Nc1ccc(OC(F)F)c(Cl)c1Cl (centres unmarked) [Compound 1-44],A (Mortality 100%),A (Mortality 100%),E (Mortality 49-0%),A (Mortality 100%),,,,
CC(C)(CS(C)(=O)=O)NC(=O)c1c(I)cccc1C(=O)Nc1ccc(OC(F)F)c(Cl)c1Cl [Compound 1-45],A (Mortality 100%),A (Mortality 100%),E (Mortality 49-0%),A (Mortality 100%),,,,
CSCC(C)(C)NC(=O)c1c(I)cccc1C(=O)Nc1ccc(OC(F)(F)Cl)cc1Cl [Compound 1-48],A (Mortality 100%),A (Mortality 100%),A (Mortality 100%),A (Mortality 100%),,,,
"C[S+]([O-])CC(C)(C)NC(=O)c1c(I)cccc1C(=O)Nc1ccc(OC(F)(F)F)cc1Cl (centres unmarked) [Compound 1-52, N^1-[2-chloro-4-(trifluoromethoxy)phenyl]-N^2-(1,1-dimethyl-2methylsulfinylethyl)-3-iodophthalamide]",,,,,100,100,100,100
CSCC(C)(C)NC(=O)c1c(I)cccc1C(=O)Nc1ccc(OC(F)(F)C(F)Cl)cc1Cl (centres unmarked) [Compound 1-58],E (Mortality 49-0%),A (Mortality 100%),E (Mortality 49-0%),A (Mortality 100%),,,,
CSCC(C)(C)NC(=O)c1c(I)cccc1C(=O)Nc1ccc(OC(C(F)(F)F)C(F)(F)F)cc1Cl [Compound 1-64],A (Mortality 100%),A (Mortality 100%),A (Mortality 100%),A (Mortality 100%),,,,
"CSCC(C)(C)NC(=O)c1c(I)cccc1C(=O)Nc1ccc(OC(F)(F)C(F)C(F)(F)F)c(Cl)c1Cl (centres unmarked) [Compound 1-66, 3-iodo-N^1-[2,3-dichloro-4-(1,1,2,3,3,3-hexafluoropropoxy)phenyl]-N^2-[(1,1-dimethyl-2-methylthio)ethyl]phthalamide]",E (Mortality 49-0%),A (Mortality 100%),E (Mortality 49-0%),A (Mortality 100%),,,,
C[S+]([O-])CC(C)(C)NC(=O)c1c(I)cccc1C(=O)Nc1ccc(OC(F)(F)C(F)C(F)(F)F)cc1Cl (centres unmarked) [Compound 1-67],A (Mortality 100%),A (Mortality 100%),E (Mortality 49-0%),A (Mortality 100%),,,,
CC(C)(CS(C)(=O)=O)NC(=O)c1c(I)cccc1C(=O)Nc1ccc(OC(F)(F)C(F)C(F)(F)F)cc1Cl (centres unmarked) [Compound 1-68],A (Mortality 100%),A (Mortality 100%),E (Mortality 49-0%),A (Mortality 100%),,,,
CSCC(C)(C)NC(=O)c1c(I)cccc1C(=O)Nc1ccc(OC(F)(F)C(F)C(F)(F)F)c(Cl)c1Cl (centres unmarked) [Compound 1-69],A (Mortality 100%),A (Mortality 100%),E (Mortality 49-0%),A (Mortality 100%),,,,
C[S+]([O-])CC(C)(C)NC(=O)c1c(I)cccc1C(=O)Nc1ccc(OC(F)(F)C(F)C(F)(F)F)c(Cl)c1Cl (centres unmarked) [Compound 1-70],A (Mortality 100%),A (Mortality 100%),E (Mortality 49-0%),A (Mortality 100%),,,,
CC(C)(CS(C)(=O)=O)NC(=O)c1c(I)cccc1C(=O)Nc1ccc(OC(F)(F)C(F)C(F)(F)F)c(Cl)c1Cl (centres unmarked) [Compound 1-71],A (Mortality 100%),A (Mortality 100%),E (Mortality 49-0%),A (Mortality 100%),,,,
CSCC(C)(C)NC(=O)c1c(I)cccc1C(=O)Nc1cc(Cl)c(OC(F)(Cl)C(F)(Cl)C(F)(F)F)cc1Cl (centres unmarked) [Compound 1-73],E (Mortality 49-0%),A (Mortality 100%),E (Mortality 49-0%),A (Mortality 100%),,,,
CSCC(C)(C)NC(=O)c1c(I)cccc1C(=O)Nc1ccc(OC(F)(F)C(F)OC(F)(F)F)cc1Cl (centres unmarked) [Compound 1-74],A (Mortality 100%),A (Mortality 100%),E (Mortality 49-0%),A (Mortality 100%),,,,
C[S+]([O-])CC(C)(C)NC(=O)c1c(I)cccc1C(=O)Nc1ccc(OC(F)(F)C(F)OC(F)(F)F)cc1Cl (centres unmarked) [Compound 1-75],A (Mortality 100%),A (Mortality 100%),E (Mortality 49-0%),A (Mortality 100%),,,,
CC(C)(CS(C)(=O)=O)NC(=O)c1c(I)cccc1C(=O)Nc1ccc(OC(F)(F)C(F)OC(F)(F)F)cc1Cl (centres unmarked) [Compound 1-76],A (Mortality 100%),A (Mortality 100%),E (Mortality 49-0%),A (Mortality 100%),,,,
CSCC(C)(C)NC(=O)c1c(I)cccc1C(=O)Nc1ccc(OC(F)(F)C(F)OC(F)(F)C(F)(F)C(F)(F)F)cc1Cl (centres unmarked) [Compound 1-81],A (Mortality 100%),A (Mortality 100%),A (Mortality 100%),A (Mortality 100%),,,,
C[S+]([O-])CC(C)(C)NC(=O)c1c(I)cccc1C(=O)Nc1ccc(OC(F)(F)C(F)OC(F)(F)C(F)(F)C(F)(F)F)cc1Cl (centres unmarked) [Compound 1-82],A (Mortality 100%),A (Mortality 100%),C (Mortality 89-80%),A (Mortality 100%),,,,
